The target in this experiment is T1, human serum albumin (HSA) (Homo sapiens, UniProt P02768).
T1 construct: gene ALB; essentially fatty acid free HSA
T1 sequence (P02768 25-609): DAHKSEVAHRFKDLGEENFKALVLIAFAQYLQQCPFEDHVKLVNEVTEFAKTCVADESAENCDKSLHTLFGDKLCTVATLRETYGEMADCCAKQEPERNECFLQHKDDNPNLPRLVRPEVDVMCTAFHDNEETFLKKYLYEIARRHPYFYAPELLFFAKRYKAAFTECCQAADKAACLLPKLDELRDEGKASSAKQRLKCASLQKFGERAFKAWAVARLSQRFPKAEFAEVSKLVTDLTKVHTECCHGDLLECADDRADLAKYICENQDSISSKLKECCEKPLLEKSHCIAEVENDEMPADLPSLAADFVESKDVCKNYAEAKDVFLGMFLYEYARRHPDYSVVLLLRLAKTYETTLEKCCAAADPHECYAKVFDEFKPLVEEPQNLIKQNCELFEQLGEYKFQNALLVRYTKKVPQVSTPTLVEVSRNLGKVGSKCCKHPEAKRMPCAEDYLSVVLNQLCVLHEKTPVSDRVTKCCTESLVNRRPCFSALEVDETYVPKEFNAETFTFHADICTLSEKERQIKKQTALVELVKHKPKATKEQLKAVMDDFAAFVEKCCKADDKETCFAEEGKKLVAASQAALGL
Nature of the experiment: intrinsic fluorescence quenching, double-log plot. Type of experiment: binding. The conditions noted are these: 300 K, phosphate buffer pH 7.4, 15 µM HSA, <2% DMSO. The source says:
intrinsic fluorescence quenching, double-log plot on human serum albumin (HSA)
`COc1cc(O[C@@H]2O[C@H](CO)[C@@H](OC)[C@H](O)[C@H]2O)c(CC=C(C)C)c2c1C(=O)/C(=C/c1ccc(O)cc1)O2` [compound 9, (Z)-6,4’-Dihydroxy-4-methoxy-7-prenylaurone 6-O-β-D-(4’’’-O-methyl)glucopyranoside]: the Kb came out at 9150 M⁻¹. To `COc1cc(O)c(CC=C(C)C)c(O)c1C(=O)/C=C/c1ccc(O)cc1` [compound 1, 3’-[3”,3”-dimethylallyl]-2’,4’,4-trihydroxy-6’-methoxychalcone] belongs 86240 M⁻¹; to `COc1cc(O[C@@H]2O[C@H](CO)[C@@H](OC)[C@H](O)[C@H]2O)c(CC=C(C)C)c(O)c1C(=O)/C=C/c1ccc(O)cc1` [compound 5, Xanthohumol 4’-O-β-D-(4’’’-O-methyl)glucopyranoside], 4550 M⁻¹. The same measure for `COc1cc(O[C@@H]2O[C@H](CO)[C@@H](O)[C@H](O)[C@H]2O)c(CC=C(C)C)c(O)c1C(=O)/C=C/c1ccc(O)cc1` [compound 4, Xanthohumol 4’-O-β-D-glucopyranoside]: 32710 M⁻¹. To `COc1cc(O)c(CC=C(C)C)c2c1C(=O)/C(=C/c1ccc(O)cc1)O2` [compound 3, (Z)-6,4’-dihydroxy-4-methoxy-7-prenylaurone] belongs 14250 M⁻¹; to `COc1cc(O[C@@H]2O[C@H](CO)[C@@H](O)[C@H](O)[C@H]2O)c(CC=C(C)C)c2c1C(=O)/C(=C/c1ccc(O)cc1)O2` [compound 8, (Z)-6,4’-Dihydroxy-4-methoxy-7-prenylaurone 6-O-β-D-glucopyranoside], 4850 M⁻¹; to `COc1cc(O)c(CC=C(C)C)c(O)c1C(=O)CCc1ccc(O)cc1` [compound 2, α,β-dihydroxanthohumol], 36350 M⁻¹. As for `COc1cc(O[C@@H]2O[C@H](CO)[C@@H](OC)[C@H](O)[C@H]2O)c(CC=C(C)C)c(O)c1C(=O)CCc1ccc(O)cc1` [compound 7, α,β-Dihydroxanthohumol 4’-O-β-D-(4’’’-O-methyl)glucopyranoside], the Kb was 6110 M⁻¹. The same measure for `COc1cc(O[C@@H]2O[C@H](CO)[C@@H](O)[C@H](O)[C@H]2O)c(CC=C(C)C)c(O)c1C(=O)CCc1ccc(O)cc1` [compound 6, α,β-Dihydroxanthohumol 4’-O-β-D-glucopyranoside]: 4480 M⁻¹.

For the origin of these results see article PMC6152009, “The Influence of Glycosylation of Natural and Synthetic Prenylated Flavonoids on Binding to Human Serum Albumin and Inhibition of Cyclooxygenases COX-1 and COX-2” (Molecules : A Journal of Synthetic Chemistry and Natural …, 2017).
